Experimental data reported in patent US20110039892A1, “IMINOPYRIDINE DERIVATIVE AND USE THEREOF” (TAKEDA PHARMACEUTICAL COMPANY LIMITED, priority 2008, published 2011).
Structures can show the parent of a compound that is named as a salt.

Target: T1, human α1D adrenergic receptor (Homo sapiens, UniProt P25100)
T1 construct: expressed in transfected cells; membrane fraction used
T1 sequence (P25100 1-572): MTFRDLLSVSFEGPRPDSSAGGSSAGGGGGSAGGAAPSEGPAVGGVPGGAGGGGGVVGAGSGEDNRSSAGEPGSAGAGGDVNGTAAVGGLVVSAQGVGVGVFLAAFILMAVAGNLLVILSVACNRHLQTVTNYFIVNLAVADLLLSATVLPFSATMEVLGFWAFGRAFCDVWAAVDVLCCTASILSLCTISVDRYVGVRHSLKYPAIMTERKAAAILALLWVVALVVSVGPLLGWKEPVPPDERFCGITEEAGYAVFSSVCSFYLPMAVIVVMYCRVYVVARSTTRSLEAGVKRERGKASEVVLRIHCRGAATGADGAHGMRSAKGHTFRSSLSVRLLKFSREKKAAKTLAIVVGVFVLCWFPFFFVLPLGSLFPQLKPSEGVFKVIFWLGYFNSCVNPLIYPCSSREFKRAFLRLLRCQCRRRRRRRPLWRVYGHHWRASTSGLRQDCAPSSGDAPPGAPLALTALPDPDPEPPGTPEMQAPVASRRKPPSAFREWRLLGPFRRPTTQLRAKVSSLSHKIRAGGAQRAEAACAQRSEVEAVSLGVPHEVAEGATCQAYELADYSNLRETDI
Assay: Measurement of α1D adrenergic receptor binding inhibitory activity ([3H]-prazosin binding to membrane fraction of CHO-K1 cells expressing the receptor)
Conditions: compound at 1 μM; [3H]-prazosin 2.5 nM; membrane fraction 20 μg/well; room temperature, 1 hr; read-out: Binding inhibitory rate (%) (α1D adrenergic receptor binding inhibitory rate)
Protocol: Measurement of α1D Adrenergic Receptor Binding Inhibitory Activity
(i) Preparation of Human α1D Adrenergic Receptor Expression Plasmid
α1D Adrenergic Receptor Gene was Cloned from Human Liver cDNA by the PCR method. PCR reaction was performed by Gene Amp PCR System 9700 (Applied Biosystems) with 50 pmol each of the primer set 5′-[…]-3′ [SEQ ID NO: 1] and 5′-[…]-3′ [SEQ ID NO: 2] prepared in reference to the base sequence of the α1D adrenergic receptor gene reported by DEBRA A. et al. (J. Pharamacol. Exp. Ter., 272, 134-142 (1995)), 200 ng of human brain hippocampus cDNA library (Takara Shuzo Co., Ltd.) as a template and TaKaRa LA-Taq DNA Polymerase (Takara Shuzo Co., Ltd.) (reaction conditions: 45 cycles of 94° C. for 15 sec, 68° C. for 3.5 min).
The PCR fragment obtained above was digested with restriction enzymes NheI (Takara Shuzo Co., Ltd.) and Kpn I (Takara Shuzo Co., Ltd.), and applied to agarose gel electrophoresis to recover DNA fragments. The DNA fragments were ligated with animal cell expression plasmid pcDNA3.1/Zeo (Invitrogen) digested with NheI and Kpn I, by DNA Ligation Kit Ver. 2 (Takara Shuzo Co., Ltd.), and transformed the competent cells of Escherichia coli JM109 to obtain plasmid, pcDNA3.1/Zeo-Adreα1D.
(ii) Introduction of Human α1D Adrenergic Receptor Expression Plasmid into CHO-K1 Cells and Preparation of Membrane Fraction
CHO-K1 cells passage cultured in HamF12 medium (Invitrogen) containing 10% fetal bovine serum (TRACE SCIENCETIFIC) in a 150 cm^2 culture flask (Corning Coaster) were detached with 0.5 g/L trypsin-0.2 g/L EDTA (Invitrogen), and the cells were washed with D-PBS(−) (Invitrogen) and centrifuged (1000 rpm, 5 min). Then, using Gene Pulser II (BioRad), DNA was introduced into the cells under the following conditions. 1×10^7 cells suspended in D-PBS(−) (700 μl) and 10 μg of pcDNA3.1/Zeo-Adreα1D were added in a 0.4 cm gap cuvette (BioRad), and electroporation was performed under voltage 0.25 kV, capacitance 960 μF. The cells were cultured in HamF12 medium containing 10% fetal bovine serum and 250 μg/mL Zeocin (Invitrogen) and the Zeocin resistance clones were selected.
Plurality of Zeocin resistance clones were selected and cultured in a cell culture flask (150 cm^2) until semiconfluent, and the cellular membrane fraction was prepared as follows.
The semiconfluent cells were detached with 0.02% EDTA containing D-PBS(−) and recovered by centrifugation. The cells were suspended in membrane preparation buffer (10 mM NaHCO3 pH 7.4, protease inhibitor cocktail (Roche)) and disrupted by 3 times of treatment in a polytron homogenizer (model PT-3100, KINEMATICA AG) at 20000 rpm for 20 seconds. After disruption, the cells were centrifuged at 2000 rpm for 10 min and the supernatant containing membrane fractions was obtained. The supernatant was centrifuged using an ultracentrifuge (model L8-70M, rotor 70 Ti, Beckman Instruments) at 30000 rpm for 1 hr to obtain a precipitate containing membrane fractions. The obtained membrane fraction of each clone was subjected to the binding experiment shown below.
The membrane fraction (20 μg/well) and [^3H]-prazosin (2.5 nM, PerkinElmer Lifescience), as a ligand, were diluted with a binding assay buffer (50 mM Tris-HCl, 10 mM MgCl2, 0.5% BSA, protease inhibitor cocktail pH 7.5), added to a 96 well microplate, and reacted at room temperature for 1 hr. For the measurement of non-specific binding, phentolamine (Sigma) was further added to 10 μM. Then, the reaction mixture was filtered and transferred to unifilter GF/C (PerkinElmer Lifescience) by using a cell harvester (PerkinElmer Lifescience). The filter was washed 3 times with ice-cooled 50 mM Tris buffer (pH 7.5). After drying the filter, MicroScinti 0 (PerkinElmer Lifescience) was added to the filter and the radioactivity was measured by TopCount (PerkinElmer Lifescience).
(iii) Evaluation of Example Compound […]

Structure (SMILES)	inhibition at 1 µM [%]
C[C@H](c1cccc(F)c1)n1cc(Cl)cc(C(N)=O)c1=N [Example 12, 5-chloro-1-[(1R)-1-(3-fluorophenyl)ethyl]-2-imino-1,2-dihydropyridine-3-carboxamide hydrochloride]	97
N#Cc1ccc2c(c1)C(n1cc(Cl)cc(C(N)=O)c1=N)CC2 (stereo not shown) [Example 19, 5-chloro-1-(6-cyano-2,3-dihydro-1H-inden-1-yl)-2-imino-1,2-dihydropyridine-3-carboxamide hydrochloride]	94.8
N=c1c(C(N)=O)cc(Cl)cn1C1(c2ccccc2)CC1 [Example 15, 5-chloro-2-imino-1-(1-phenylcyclopropyl)-1,2-dihydropyridine-3-carboxamide]	62
CC(c1cccc(Cl)c1)n1cc(Cl)cc(C(N)=O)c1=N (stereo not shown) [Example 1, 5-chloro-1-[1-(3-chlorophenyl)ethyl]-2-imino-1,2-dihydropyridine-3-carboxamide]	100
C[C@H](c1cccc(C#N)c1)n1cc(Cl)cc(C(N)=O)c1=N [Example 23, 5-chloro-1-[(1R)-1-(3-cyanophenyl)ethyl]-2-imino-1,2-dihydropyridine-3-carboxamide hydrochloride]	100
C[C@H](c1ccc(F)cc1)n1cc(Cl)cc(C(N)=O)c1=N [Example 22, 5-chloro-1-[(1R)-1-(4-fluorophenyl)ethyl]-2-imino-1,2-dihydropyridine-3-carboxamide hydrochloride]	96.1
N=c1c(C(N)=O)cc(Cl)cn1C1CCS(=O)(=O)c2ccc(Cl)cc21 (stereo not shown) [Example 30, 5-chloro-1-(6-chloro-1,1-dioxido-3,4-dihydro-2H-thiochromen-4-yl)-2-imino-1,2-dihydropyridine-3-carboxamide hydrochloride]	96.9
N=c1c(C(N)=O)cc(Cl)cn1C1CCc2ccc(Cl)cc21 (stereo not shown) [Example 2, 5-chloro-1-(6-chloro-2,3-dihydro-1H-inden-1-yl)-2-imino-1,2-dihydropyridine-3-carboxamide]	102
C[C@H](c1cc(F)cc(F)c1)n1cc(Cl)cc(C(N)=O)c1=N [Example 14, 5-chloro-1-[(1R)-1-(3,5-difluorophenyl)ethyl]-2-imino-1,2-dihydropyridine-3-carboxamide hydrochloride]	100
CC(c1ccsc1)n1cc(Cl)cc(C(N)=O)c1=N (stereo not shown) [Example 5, 5-chloro-2-imino-1-(1-(thiophen-3-yl)ethyl)-1,2-dihydropyridine-3-carboxamide hydrochloride]	79.4
